Results from PMC12223813, “Antiproliferative and Trypanocidal Activity of Ivermectin Bioconjugates” (ACS Omega, 2025).

Tests used:
[1] = system: MDA-MB-231, human triple-negative breast cancer cell line; assay: Antiproliferative activity, MTT assay; type: cell-based; conditions: for IC50: Homo sapiens, MDA-MB-231, 72 h, MTT, mean ± SD; for MDA-MB-231 SI: SI = IC50 HaCaT/IC50 MDA-MB-231
Experimental: (§1) Additionally, to assess the selectivity of these compounds toward cancer cells, we included an immortalized keratinocyte cell line from adult human skin (HaCaT) in the antiproliferative activity tests. Doxorubicin served as the reference anticancer drug.
(§2) The culture media were enriched with 10% fetal bovine serum (FBS, Sigma-Aldrich, St. Louis, MO, USA), 20 mM HEPES (Biowest, Nuaillé, France), and antibiotics (100 U/mL penicillin and 100 μg/mL streptomycin) obtained from Gibco (Grand Island, NY, USA). The cells were maintained in a humidified incubator at 37 °C with 5% CO2 until they reached 80–90% confluence, after which they were used for further experiments.
(§3) To assess the cytotoxicity, the cells (0.5 × 10^4/well) were plated in 96-well plates and allowed to adhere for 24 h. The MTT (3-(4,5-dimethylthiazol-2-yl)-2,5-diphenyltetrazolium bromide) assay was used to evaluate the cytotoxic effects of IVR bioconjugates on all tested cell lines. After 24 h incubation, cells were exposed to varying concentrations (1 to 100 μM) of the test compounds for 72 h. Following the treatment, the medium was discarded, and a 0.5 mg mL^–1 MTT solution was added to each well and incubation was continued for another 4 h. Mitochondrial enzyme activity facilitated the formation of formazan crystals, which were subsequently dissolved in DMSO-isopropanol (1:1, v/v), producing a violet-colored solution. A 100 μL aliquot of this solution was transferred to the well, and absorbance was recorded at 570 nm using a MultiscanGo spectrophotometer (ThermoFisher Scientific, Carlsbad, CA, USA).
(§4) Cytotoxicity was quantified by comparing the absorbance of the treated cells to that of untreated controls using the formula: [A]/[B] × 100, where [A] represents the absorbance of the treated sample and [B] corresponds to the absorbance of the control sample. A decrease in MTT levels reflects a decrease in cell viability.

[2] = system: HCT-116, human primary colon cancer cell line; assay: Antiproliferative activity, MTT assay; type: cell-based; conditions: for IC50: Homo sapiens, HCT-116, 72 h, MTT, mean ± SD; for HCT-116 SI: SI = IC50 HaCaT/IC50 HCT-116
Experimental: as §1, §2, §3, §4

[3] = system: A549, human lung cancer cell line; assay: Antiproliferative activity, MTT assay; type: cell-based; conditions: for IC50: Homo sapiens, A549, 72 h, MTT, mean ± SD; for A549 SI: SI = IC50 HaCaT/IC50 A549
Experimental: as §1, §2, §3, §4

[4] = system: PC3, human metastatic prostate cancer cell line; assay: Antiproliferative activity, MTT assay; type: cell-based; conditions: for IC50: Homo sapiens, 72 h, MTT, mean ± SD; for PC3 SI: SI = IC50 HaCaT/IC50 PC3
Experimental: as §1, §2, §3, §4

[5] = system: human promyelocytic leukemia HL-60 cells; assay: Cytotoxic activity, resazurin cell viability assay; type: cell-based; conditions: 72 h total (24 h + 48 h with resazurin), mean ± SD of three independent experiments
Experimental: (§5) The trypanocidal and cytotoxic activities of the newly synthesized IVR bioconjugates and their conjugation partners were determined for bloodstream forms of T. brucei brucei and human myeloid HL-60 cells in vitro using the resazurin cell viability assay as previously described.
(§6) Test compounds were assayed at 10-fold dilutions ranging from 100 μM to 1 nM in the presence of 0.9% DMSO. Controls were grown in the culture medium containing only 0.9% DMSO. The assays were cultured in an incubator at 37 °C in a humidified atmosphere containing 5% CO2. After 24 h incubation, 20 μL of 0.5 mM resazurin (prepared in sterile PBS) was added, and the cultures were grown for another 48 h. Then, the proliferation of the cells was determined by measuring the absorbance at 570 nm (test wavelength) and 630 nm (reference wavelength) using a microplate reader.

[6] = system: HaCaT, human immortalized keratinocyte cell line; assay: Cytotoxicity toward normal cells, MTT assay; type: cell-based; conditions: 72 h, mean ± SD
Experimental: as §1, §2, §3, §4

in vitro = conditions: human
Experimental: as §5, §6

[7] = system: bloodstream forms of T. b. brucei (427-221a clone); assay: microbe, parasite or virus in culture; conditions: for selectivity GI50 ratio: GI50(HL-60)/GI50(T. brucei); for GI50: Trypanosoma brucei, 72 h, read-out: T. brucei GI50, bloodstream forms, 72 h total (24 h + 48 h with resazurin), mean ± SD of three independent experiments
Experimental: as §5, §6

Compound | IC50 [1] [µM] | MDA-MB-231 SI [1] | IC50 [2] [µM] | HCT-116 SI [2] | IC50 [3] [µM] | A549 SI [3] | IC50 [4] [µM] | PC3 SI [4] | GI50 [5] [µM] | IC50 [6] [µM] | selectivity ratio (in vitro) | selectivity GI50 ratio [7] | antitrypanosomal activity, times stronger than IVR ([7]; relative to IVR GI50) [times] | antitrypanosomal activity, times stronger than artesunate ([7]; relative to artesunate GI50) [times] | GI50 [7] [µM]
CCC(C)C1OC2(CCC1C)CC1CC(CC=C(C)C(OC(=O)Cn3cc(COC(=O)CCC(=O)OC4OC5OC6(C)CCC7C(C)CCC(C4C)C57OO6)nn3)C(C)C=CC=C3COC4C(O)C(C)=CC(C(=O)O1)C34O)O2 (stereo not drawn) [compound 16, Ivermectin–Artesunate Conjugate] | 13 ± 4.1 | >7.7 | 4.5 ± 0.6 | >22.2 | 3.8 ± 1.3 | >26.3 | 20.8 ± 7.2 | >4.8 | 18 ± 6 | > 100 | > 256 | 46.2 | 7 | 9 | –
Cc1ncc([N+](=O)[O-])n1CCO [metronidazole, reference compound] | 14.9 ± 3.9 | >6.7 | > 100 | ∼1.0 | > 100 | ∼1.0 | 57 ± 6.1 | >1.8 | > 100 | > 100 | – | ∼1.0 | – | – | –
C=C[C@H]1C[N@@]2CC[C@H]1C[C@@H]2[C@@H](O)c1ccnc2ccc(OC)cc12 [quinidine, reference compound] | 76.2 ± 4.6 | – | 67.4 ± 8.9 | – | 55.8 ± 5.3 | – | 86.1 ± 1.2 | – | > 100 | > 100 | – | – | – | – | 0.32 ± 0.04
C=C[C@H]1C[N@@]2CC[C@H]1C[C@H]2[C@H](O)c1ccnc2ccc(OC)cc12 [quinine, reference compound] | 54.4 ± 7 | – | 32.8 ± 3.8 | – | 56.4 ± 3.2 | – | 56.3 ± 7.2 | – | > 100 | > 100 | – | – | – | – | 1.1 ± 0.3
